The text below walks through data of patent US20260022142A1, “MACROCYCLIC IMMUNOMODULATORS” (Bristol-Myers Squibb Company, priority 2022, published 2026).

SMILES strings stand for the structures. Numbered stars: 1 amine (or outer) side, 2 acyl side, 3 side chain; on linkers, the order of the positions; unused ones are H or OH. Bridge positions count the residues as written; N and C are the ends. Square brackets hold non-standard residues; d marks the D form. Peptide text beside a SMILES is read from it. * marks the point of attachment. ξ: configuration not given here. Phe(3-CF3) = N[C@@H](Cc1cccc(C(F)(F)F)c1)C(=O)O; Phe(4-COOH) = N[C@@H](Cc1ccc(C(=O)O)cc1)C(=O)O; Bip = N[C@@H](Cc1ccc(-c2ccccc2)cc1)C(=O)O; NH(CH2)14COOH = O=C(O)CCCCCCCCCCCCCCN*; Phe(3-Me) = Cc1cccc(C[C@H](N)C(=O)O)c1; γGlu = O=C(O)[C@H](CCC(=O)[*:2])N[*:1]; NH(CH2)12COOH = O=C(O)CCCCCCCCCCCCN*; Val(3-OH) = CC(C)(O)[C@H](N)C(=O)O; 4Pal = N[C@@H](Cc1ccncc1)C(=O)O; 3Thi = N[C@@H](Cc1ccsc1)C(=O)O; Cha = N[C@@H](CC1CCCCC1)C(=O)O; Cit = NC(=O)NCCC[C@H](N)C(=O)O; Ile(3ξ) = CCC(C)[C@H](N)C(=O)O; Thr(3ξ) = CC(O)[C@H](N)C(=O)O; Carboxymethyl = O=C(O)C*; Orn = NCCC[C@H](N)C(=O)O; Aun = NCCCCCCCCCCC(=O)O; Dab = NCC[C@H](N)C(=O)O; Dap = NC[C@H](N)C(=O)O; AEEA = NCCOCCOCC(=O)O; Ac3c = NC1(C(=O)O)CC1; ξC = NC(CS)C(=O)O

For the assay, the target named is T1, PD-1/PD-L1 interaction (PE-labeled human PD-L1-Ig binding to Jurkat cell line over-expressing human PD-1) (Homo sapiens, UniProt Q15116).
T1 construct: expressed in transfected cells; host or cells: Jurkat
T1 sequence (Q15116 25-288): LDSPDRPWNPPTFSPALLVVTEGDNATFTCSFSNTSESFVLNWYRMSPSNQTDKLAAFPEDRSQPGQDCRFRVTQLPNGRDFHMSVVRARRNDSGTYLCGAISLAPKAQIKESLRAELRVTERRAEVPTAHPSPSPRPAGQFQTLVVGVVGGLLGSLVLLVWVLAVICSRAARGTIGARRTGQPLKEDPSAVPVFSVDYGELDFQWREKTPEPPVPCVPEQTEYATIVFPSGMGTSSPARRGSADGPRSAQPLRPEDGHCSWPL
The assay can be described thus: Jurkat-PD-1 Cell Binding High-Content Screening Assay (CBA). It is filed as cell-based. To be noted: Jurkat cell line over-expressing human PD-1; PE-labeled PD-L1-Ig 20 nM final; read-out: Jurkat hPD1-PDL1 IC50. A digest of the protocol:
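Jurkat cells stably over-expressing human PD-1 were seeded in DMEM with 10% fetal calf serum and pre-incubated with compound for 2 h at 37° C. PE-labeled human PD-L1-Ig was then added at 20 nM final for 1 hour, after which cells were fixed with paraformaldehyde, Hoechst-stained and imaged by high-content microscopy.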
What is called IC50 is the concentration at which inhibition is half-maximal. As for `Cc1cccc(C[C@@H]2NC(=O)[C@H](CC(=O)O)NC(=O)[C@H](Cc3ccc(OCC(=O)O)cc3)NC(=O)[C@H](CCN)NC(=O)CSC[C@@H](C(=O)NCCOCCOCC(=O)NCCCCCCCCCCC(=O)O)NC(=O)[C@H](C(C)O)NC(=O)[C@H](C(C)C)NC(=O)[C@H](CC3CCCCC3)NC(=O)[C@H](CCN)NC(=O)[C@@H](CC(C)C)NC(=O)[C@H](CCCN)NC(=O)[C@H](CCCNC(N)=O)NC(=O)[C@H](Cc3ccc(-c4ccccc4)cc3)NC(=O)[C@H](C(C)C)NC2=O)c1` (stereo partly drawn) [Compound 3047] ({CH2CO}-[Dab]Y(Carboxymethyl)D[Phe(3-Me)]V[Bip][Cit][Orn][dL][Dab][Cha]V[Thr(3ξ)]C[AEEA][Aun]-OH; thioether N-14), the IC50 was found to be 13.3 nM. On to `Cc1cccc(C[C@@H]2NC(=O)[C@H](CC(=O)O)NC(=O)[C@H](Cc3ccc(OCC(=O)O)cc3)NC(=O)[C@H](CN)NC(=O)CSC[C@@H](C(=O)N[C@@H](CCCCN)C(=O)NCCOCCOCC(=O)NCCCCCCCCCCC(=O)O)NC(=O)[C@H](CCCNC(=N)N)NC(=O)[C@H](C(C)C)NC(=O)[C@H](CC3CCCCC3)NC(=O)[C@H](CCN)NC(=O)[C@@H](CC(C)C)NC(=O)[C@H](CCCN)NC(=O)[C@H](CCC(=O)O)NC(=O)[C@H](Cc3ccc(-c4ccccc4)cc3)NC(=O)[C@H](C(C)C)NC2=O)c1` [Compound 2670] ({CH2CO}-[Dap]Y(Carboxymethyl)D[Phe(3-Me)]V[Bip]E[Orn][dL][Dab][Cha]VRCK[AEEA][Aun]-OH; thioether N-14), for which the IC50 was found to be 10.8 nM. In the case of `CC(C)C[C@H]1NC(=O)[C@H](CCCN)NC(=O)[C@H](C(C)C)NC(=O)[C@H](Cc2ccc(-c3ccccc3)cc2)NC(=O)[C@H](C(C)C)NC(=O)[C@H](Cc2c[nH]c3ccccc23)NC(=O)[C@H](CC(=O)O)NC(=O)[C@H](Cc2ccc(OCC(=O)O)cc2)NC(=O)[C@H](CN)NC(=O)CSCC(C(=O)N[C@H](CCC(=O)O)C(=O)NCCCCCCCCCCC(=O)O)NC(=O)[C@H]([C@@H](C)O)NC(=O)[C@H](C(C)C)NC(=O)[C@H](CC2CCCCC2)NC(=O)[C@H](Cc2cnc[nH]2)NC1=O` (stereo partly drawn) [Compound 1122] ({CH2CO}-[Dap]Y(Carboxymethyl)DWV[Bip]V[Orn][dL]H[Cha]VT[ξC][dE][Aun]-OH; thioether N-14), the IC50 came out at 42.4 nM. For the compound `CC(C)C[C@@H]1NC(=O)CSC[C@@H](C(=O)N[C@@H](CCN)C(=O)NCCCCCCCCCCCCC(=O)O)NC(=O)[C@H](Cc2cnc[nH]2)NC(=O)[C@H](C(C)(C)O)NC(=O)[C@H](CC2CCCCC2)NC(=O)[C@H](CCN)NC(=O)[C@@H](CC(C)C)NC(=O)[C@H](CCCN)NC(=O)[C@H](Cc2ccc(OCC(=O)O)cc2)NC(=O)[C@H](Cc2ccc(-c3ccccc3)cc2)NC(=O)[C@H](Cc2ccc(OCC(=O)O)cc2)NC(=O)[C@H](Cc2cccc(C(F)(F)F)c2)NC(=O)[C@H](CC(=O)O)NC(=O)[C@H](Cc2ccc(OCC(=O)O)cc2)NC1=O` [Compound 3873] ({CH2CO}-LY(Carboxymethyl)D[Phe(3-CF3)]Y(Carboxymethyl)[Bip]Y(Carboxymethyl)[Orn][dL][Dab][Cha][Val(3-OH)]HC[Dab]-{NH(CH2)12COOH}; thioether N-14), the IC50 came to 70.5 nM. Take `Cc1cccc(C[C@@H]2NC(=O)[C@H](CC(=O)O)NC(=O)[C@H](Cc3ccc(O)cc3)NC(=O)[C@H](Cc3ccncc3)NC(=O)CSC[C@@H](C(=O)N[C@@H](CCN)C(=O)NCCCCCCCCCCC(=O)O)NC(=O)[C@H](CCCN)NC(=O)[C@H](C(C)C)NC(=O)[C@H](CC3CCCCC3)NC(=O)[C@H](CCN)NC(=O)[C@@H](CC(C)C)NC(=O)[C@H](CCCN)NC(=O)[C@H](Cc3ccc(O)cc3)NC(=O)[C@H](Cc3ccc(-c4ccccc4)cc3)NC(=O)[C@H](C(C)C)NC2=O)c1` [Compound 2708] ({CH2CO}-[4Pal]YD[Phe(3-Me)]V[Bip]Y[Orn][dL][Dab][Cha]V[Orn]C[Dab][Aun]-OH; thioether N-14): the concentration for half-maximal inhibition (IC50) amounted to 62.8 nM. For `CC[C@H](C)[C@@H]1NC(=O)[C@H](Cc2ccc(-c3ccccc3)cc2)NC(=O)[C@H](C(C)C)NC(=O)[C@H](Cc2cccc(C)c2)NC(=O)[C@H](CC(=O)O)NC(=O)[C@H](Cc2ccc(C(=O)O)cc2)NC(=O)[C@H](Cc2ccncc2)NC(=O)CSC[C@@H](C(=O)NCCOCCOCC(=O)NCCCCCCCCCCC(=O)O)NC(=O)[C@H]([C@@H](C)O)NC(=O)[C@H](C(C)C)NC(=O)[C@H](CC2CCCCC2)NC(=O)[C@H](CCN)NC(=O)[C@@H](CC(C)C)NC(=O)[C@H](CCCN)NC1=O` [Compound 1182], the IC50 was 43.7 nM. Regarding `Cc1cccc(C[C@@H]2NC(=O)[C@H](CC(=O)O)NC(=O)[C@H](Cc3ccc(OCC(=O)O)cc3)NC(=O)[C@H](CN)NC(=O)CSC[C@@H](C(=O)N[C@@H](CCN)C(=O)NCCCCCCCCCCCCCCC(=O)O)NC(=O)[C@H](C(C)O)NC(=O)[C@H](C(C)C)NC(=O)[C@H](CC3CCCCC3)NC(=O)[C@H](CCN)NC(=O)[C@@H](CC(C)C)NC(=O)[C@H](CCCN)NC(=O)[C@H](CCCNC(N)=O)NC(=O)[C@H](Cc3ccc(-c4ccccc4)cc3)NC(=O)[C@H](C(C)C)NC2=O)c1` (stereo partly drawn) [Compound 3127] ({CH2CO}-[Dap]Y(Carboxymethyl)D[Phe(3-Me)]V[Bip][Cit][Orn][dL][Dab][Cha]V[Thr(3ξ)]C[Dab]-{NH(CH2)14COOH}; thioether N-14), the IC50 stood at 308 nM. Take `Cc1cccc(C[C@@H]2NC(=O)[C@H](CC(=O)O)NC(=O)[C@H](Cc3ccc(OCC(=O)O)cc3)NC(=O)[C@H](CN)NC(=O)CSC[C@@H](C(=O)NC3(C(=O)N[C@@H](CCCN)C(=O)N[C@H](CO)C(=O)NCCCCCCCCCCC(=O)O)CC3)NC(=O)[C@H]([C@@H](C)O)NC(=O)[C@H](C(C)C)NC(=O)[C@H](CC3CCCCC3)NC(=O)[C@H](CCN)NC(=O)[C@@H](CC(C)C)NC(=O)[C@H](CCCN)NC(=O)[C@H](CCCNC(N)=O)NC(=O)[C@H](Cc3ccc(-c4ccccc4)cc3)NC(=O)[C@H](C(C)C)NC2=O)c1` [Compound 2015] ({CH2CO}-[Dap]Y(Carboxymethyl)D[Phe(3-Me)]V[Bip][Cit][Orn][dL][Dab][Cha]VTC[Ac3c][Orn][dS][Aun]-OH; thioether N-14): the IC50 was 19.8 nM.

In the case of `CC(C)C[C@H]1NC(=O)[C@H](CCCN)NC(=O)[C@H](C(C)C)NC(=O)[C@H](Cc2ccc(-c3ccccc3)cc2)NC(=O)[C@H](C(C)C)NC(=O)[C@H](Cc2c[nH]c3ccccc23)NC(=O)[C@H](CC(=O)O)NC(=O)[C@H](Cc2ccc(OCC(=O)O)cc2)NC(=O)[C@H](Cc2ccsc2)NC(=O)CSC[C@@H](C(=O)NCCOCCOCC(=O)N[C@@H](CCCN)C(=O)NCCCCCCCCCCC(=O)O)NC(=O)[C@H](C(C)O)NC(=O)[C@H](C(C)C)NC(=O)[C@H](CC2CCCCC2)NC(=O)[C@H](CCN)NC1=O` (stereo partly drawn) [Compound 3211] ({CH2CO}-[3Thi]Y(Carboxymethyl)DWV[Bip]V[Orn][dL][Dab][Cha]V[Thr(3ξ)]C[AEEA][Orn][Aun]-OH; thioether N-14), the IC50 turned out to be 18.3 nM. Consider `CC(C)C[C@H]1NC(=O)[C@H](CCCN)NC(=O)[C@H](C(C)C)NC(=O)[C@H](Cc2ccc(-c3ccccc3)cc2)NC(=O)[C@H](C(C)C)NC(=O)[C@H](Cc2c[nH]c3ccccc23)NC(=O)[C@H](CC(=O)O)NC(=O)[C@H](Cc2ccc(OCC(=O)O)cc2)NC(=O)[C@H](CN)NC(=O)CSC[C@@H](C(=O)N[C@@H](CCCCN)C(=O)NCCOCCOCC(=O)NCCCCCCCCCCC(=O)O)NC(=O)[C@H](CCCCN)NC(=O)[C@H](C(C)C)NC(=O)[C@H](CC2CCCCC2)NC(=O)[C@H](CCN)NC1=O` [Compound 2525] ({CH2CO}-[Dap]Y(Carboxymethyl)DWV[Bip]V[Orn][dL][Dab][Cha]VKCK[AEEA][Aun]-OH; thioether N-14), for which the IC50 turned out to be 16.5 nM. Regarding `COC[C@@H]1NC(=O)CSC[C@@H](C(=O)N[C@@H](CCN)C(=O)NCCOCCOCC(=O)N[C@@H](CCC(=O)NCCOCCOCC(=O)NCCCCCCCCCCCCC(=O)O)C(=O)O)NC(=O)[C@H](CO)NC(=O)[C@H](C(C)(C)O)NC(=O)[C@H](CC2CCCCC2)NC(=O)[C@H](CCN)NC(=O)[C@@H](CC(C)C)NC(=O)[C@H](CCCN)NC(=O)[C@H](Cc2ccc(C(=O)O)cc2)NC(=O)[C@H](Cc2ccc(-c3ccccc3)cc2)NC(=O)[C@H](Cc2ccc(C(=O)O)cc2)NC(=O)[C@H](Cc2cccc(C(F)(F)F)c2)NC(=O)[C@H](CC(=O)O)NC(=O)[C@H](Cc2ccc(OCC(=O)O)cc2)NC1=O` [Compound 2938] ({CH2CO}-S(Me)Y(Carboxymethyl)D[Phe(3-CF3)][Phe(4-COOH)][Bip][Phe(4-COOH)][Orn][dL][Dab][Cha][Val(3-OH)]SC[Dab][AEEA][γGlu][AEEA]-{NH(CH2)12COOH}; thioether N-14), the IC50 is 26.8 nM.

With `Cc1cccc(C[C@@H]2NC(=O)[C@H](CC(=O)O)NC(=O)[C@H](Cc3ccc(OCC(=O)O)cc3)NC(=O)[C@H](CN)NC(=O)CSC[C@@H](C(=O)N[C@@H](CCN)C(=O)NCCCCCCCCCCC(=O)O)NC(=O)[C@@H](CCC(=O)O)NC(=O)[C@H](C(C)C)NC(=O)[C@H](CC(C)C)NC(=O)[C@H](CCN)NC(=O)[C@@H](CC(C)C)NC(=O)[C@H](CCCN)NC(=O)[C@H](Cc3ccc(O)cc3)NC(=O)[C@H](Cc3ccc(-c4ccccc4)cc3)NC(=O)[C@H](C(C)C)NC2=O)c1` [Compound 2757] ({CH2CO}-[Dap]Y(Carboxymethyl)D[Phe(3-Me)]V[Bip]Y[Orn][dL][Dab]LV[dE]C[Dab][Aun]-OH; thioether N-14), the IC50 came to 177 nM. In the case of `CCC(C)[C@@H]1NC(=O)[C@H](Cc2ccc(-c3ccccc3)cc2)NC(=O)[C@H](CC(C)C)NC(=O)[C@H](Cc2cccc(C)c2)NC(=O)[C@H](CC(=O)O)NC(=O)[C@H](Cc2ccc(OCC(=O)O)cc2)NC(=O)[C@H](Cc2ccc(OCC(=O)O)cc2)NC(=O)CSC[C@@H](C(=O)NCCOCCOCC(=O)N[C@@H](CCC(=O)NCCCCCCCCCCC(=O)O)C(=O)O)NC(=O)[C@H](CO)NC(=O)[C@H](C(C)C)NC(=O)[C@H](CC(C)C)NC(=O)[C@H](CCN)NC(=O)[C@@H](CC(C)C)NC(=O)[C@H](CCCN)NC1=O` (stereo partly drawn) [Compound 3085] ({CH2CO}-Y(Carboxymethyl)Y(Carboxymethyl)D[Phe(3-Me)]L[Bip][Ile(3ξ)][Orn][dL][Dab]LVSC[AEEA][γGlu][Aun]-OH; thioether N-14), the IC50 was determined as 12 nM.
